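Assay format: 96-well plates, 48-hour exposure. TGI denotes the concentration required for complete inhibition of growth.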
Tests used:
Assay in all cases: DTP human tumour cell line panel, 48 h
MDA-MB-435 = tested on: MDA-MB-435
A498 renal = tested on: A498 renal
SK-MEL-2 melanoma = tested on: SK-MEL-2 melanoma
UACC-62 melanoma = tested on: UACC-62 melanoma
NCI-H23 lung = tested on: NCI-H23 lung
HCC-2998 colon = tested on: HCC-2998 colon
CCRF-CEM leukemia = tested on: CCRF-CEM leukemia
SF-295 CNS = tested on: SF-295 CNS
KM12 colon = tested on: KM12 colon
NCI-H460 lung = tested on: NCI-H460 lung
EKVX NSCLC = tested on: EKVX NSCLC
HL-60(TB) leukemia = tested on: HL-60(TB) leukemia
K-562 leukemia = tested on: K-562 leukemia
TK-10 renal = tested on: TK-10 renal
UACC-257 melanoma = tested on: UACC-257 melanoma
T-47D breast = tested on: T-47D breast
SK-OV-3 ovarian = tested on: SK-OV-3 ovarian
NCI-H522 lung = tested on: NCI-H522 lung
COLO 205 colon = tested on: COLO 205 colon
HOP-92 NSCLC = tested on: HOP-92 NSCLC
MOLT-4 leukemia = tested on: MOLT-4 leukemia
MCF7 breast = tested on: MCF7 breast
RXF 393 renal = tested on: RXF 393 renal
CAKI-1 renal = tested on: CAKI-1 renal
IGROV1 ovarian = tested on: IGROV1 ovarian
MALME-3M melanoma = tested on: MALME-3M melanoma
OVCAR-8 ovarian = tested on: OVCAR-8 ovarian
OVCAR-5 ovarian = tested on: OVCAR-5 ovarian
A549 NSCLC = tested on: A549 NSCLC
SK-MEL-5 melanoma = tested on: SK-MEL-5 melanoma
LOX IMVI melanoma = tested on: LOX IMVI melanoma
OVCAR-4 ovarian = tested on: OVCAR-4 ovarian
NCI-H226 lung = tested on: NCI-H226 lung
SF-268 CNS = tested on: SF-268 CNS
786-0 renal = tested on: 786-0 renal
HOP-62 NSCLC = tested on: HOP-62 NSCLC
SF-539 CNS = tested on: SF-539 CNS
NCI/ADR-RES ovarian = tested on: NCI/ADR-RES ovarian
HS 578T breast = tested on: HS 578T breast
UO-31 renal = tested on: UO-31 renal
MDA-MB-231 breast = tested on: MDA-MB-231 breast
HCT-116 colon = tested on: HCT-116 colon
M14 melanoma = tested on: M14 melanoma
HCT-15 colon = tested on: HCT-15 colon
RPMI-8226 leukemia = tested on: RPMI-8226 leukemia
MDA-N = tested on: MDA-N
SW-620 colon = tested on: SW-620 colon
U251 CNS = tested on: U251 CNS
PC-3 prostate = tested on: PC-3 prostate
HT29 colon = tested on: HT29 colon
BT-549 breast = tested on: BT-549 breast
SNB-75 CNS = tested on: SNB-75 CNS
SK-MEL-28 melanoma = tested on: SK-MEL-28 melanoma
SN12C renal = tested on: SN12C renal
DU-145 prostate = tested on: DU-145 prostate
OVCAR-3 ovarian = tested on: OVCAR-3 ovarian
SNB-19 CNS = tested on: SNB-19 CNS
ACHN renal = tested on: ACHN renal

Measured: TGI

COc1ccc(/C=C2\CC3C4CC=C5C[C@@H](O)CC[C@]5(C)C4CC[C@]3(C)C2=O)cc1OC (stereo partly drawn)
51.9 µM: OVCAR-3 ovarian
36.2 µM: RPMI-8226 leukemia
21.9 µM: SK-MEL-5 melanoma
57.6 µM: NCI-H522 lung
90.3 µM: UO-31 renal
93.6 µM: A498 renal
47 µM: COLO 205 colon
83.4 µM: MOLT-4 leukemia
50.4 µM: SF-295 CNS
> 100 µM: all other assays above
